Test results as given in patent publication US8119812B2, “Thiazolidinone derivative” (SBI Biotech Co., Ltd., priority 2009, dated 2012).

What follows are molecules tested on HeLa cells (assay: Cell proliferation inhibitory activity, WST-1 assay, HeLa cells). Conditions: FIG. 1; incubation for 24 hours after adding compound; absorbance at 450 nm (WST-1); cell line not given.
Format: cell-based
Method: Cell proliferation inhibitory activity of the thiazolidinone derivatives shown in Tables 2 to 21 and 26 to 29 were evaluated according to the following procedure.
HeLa cells (ATCC) were cultured in a medium (DMEM-10% FCS-Penicillin/Streptomycin) on 10-cm dishes. The medium was removed from the HeLa cells (ATCC) in healthy growth conditions (70 to 90% confluent), the cells were detached by treating with 2 ml of trypsin (TrypL Express, GIBCO), and then the cells were collected using the same medium.
After the collected cells were suspended in the medium at a concentration of 5×10^4 cells/mL, 100 μL, each of the cells were seeded on 96-well plates (FALCON, 3530) at a concentration of 5×10^3 […]. Each medium alone without cells was added to the blank wells. The wells were incubated in a 5% CO2 incubator. The culture media used are as follows.
HeLa cells: DMEM-10% FCS-Penicillin/Streptomycin,
The following day after the start of culturing, the medium was replaced with that including candidate compounds. At the beginning, the candidate compounds were diluted with DMSO, and a 10-step dilution series from 0 μM to 12.5 mM was prepared. 249 μL of the medium was added to 1.5-ml tubes. Then, 1 μL of the compound diluted with DMSO was added thereto at each concentration, and this was mixed. By this procedure, the ratio of DMSO included becomes 1/250. More specifically, in case of the following dilution series, the final concentrations of candidate compounds are as follows.
After removing the medium in wells, each candidate compound was added in duplicate to each well at a volume of 100 μL per one concentration. […]
On the next day or the day after the next day (24 to 48 hours later), 10 μL of Cell Proliferation Reagent WST-1 (ROCHE) was added to each well. […] The formed pigment can be assayed by measuring the absorbance at 450 nm. After incubation for an hour in a CO2 incubator, the absorbance at 450 nm was measured using a microplate reader. The values were evaluated by subtracting the blank value, and plotted by curve-fitting using the Prism software, and IC50 was calculated.

Compound | cell proliferation-inhibiting effect
Cc1cc(OCCN(C)C)ccc1/N=C1/NC(=O)/C(=C/c2cnc(NC(=O)C3CC3)s2)S1 [Compound 119, (2Z,5Z)-N-(5{[2-({4-[2-(dimethylamino)ethoxy]-2-methylphenyl}azamethylene)-4-oxo(1,3-thiazolidin-5-ylidene)]methyl}(1,3-thiazol-2-yl))cyclopropylcarboxamide] | strong inhibitory effect
Cc1cc(OC2CCN(C)C2)ccc1/N=C1/NC(=O)/C(=C/c2cnc(NC(=O)C3CC3)s2)S1 (stereo not drawn) [Compound 139, (2Z,5Z)-cyclopropyl-N-{5-[(2-{[2-methyl-4-(1-methylpyrrolidin-3-yloxy)phenyl]azamethylene}-4-oxo(1,3-thiazolidin-5-ylidene))methyl] (1,3-thiazol-2-yl)}carboxamide] | strong inhibitory effect
COC(=O)N(C)CCOc1ccc(/N=C2/NC(=O)/C(=C/c3cnc(NC(=O)C4CC4)s3)S2)c(C)c1 [Compound 137, (2Z,5Z)-N-(2-{4-[(5-{[2-(cyclopropylcarbonylamino) (1,3-thiazol-5-yl)]methylene}-4-oxo(1,3-thiazolidin-2-ylidene))azamethyl]-3-methylphenoxy}ethyl) methoxy-N-methylcarboxamide] | strong inhibitory effect
